US12298308B2, “Neoadjuvant chemotherapy induces breast cancer metastasis through a TMEM-mediated mechanism” (Albert Einstein College of Medicine, priority 2017, dated 2025)

Assays:
circulating tumor cells = assay: Circulating tumor cells per mL of blood; type: in vivo, mouse
Description: (§1) Drug Administration. The following drugs were administered in mice: Paclitaxel was given at 10 mg/Kg i.v every 5 days for 2 weeks; Doxorubicin was given at 5 mg/Kg i.v. every 5 days for 2 weeks; Cyclophosphamide was given at 120 mg/Kg i.p. only once; Rebastinib was given at 10 mg/Kg per os, every 3-4 days for 4 weeks.
Circulating Tumor Cells. Mice were anesthetized with 3.5-4.5% isoflurane, and blood was taken from the right ventricle by heart puncture, using 25G needles coated with heparin. Erythrocytes were lysed, using 10 ml of 1×RBC lysis buffer (multi-species, eBioscience). Cancer cells were quantified, as previously described (31, 60).

breast cancer = conditions: addition of paclitaxel into preoperative NAC regimen; cited from earlier work
TMEM = assay: Extravascular Dextran-TMR in fixed tumor sections (multichannel IF); type: in vivo, mouse
Description: In a second independent validation experiment, a group of vehicle- or paclitaxel-treated mice received an i.v injection of Dextran-TMR for 1 hour and then sacrificed and evaluated for vascular permeability in fixed tumor sections (FIG. 2A). Multichannel IF staining included endomucin as a blood vessel exclusion mask and a specific anti-TMR antibody for assessing dextran leakage. A corresponding TMEM IHC staining section was co-aligned to evaluate the presence/absence of TMEM in each vascular profile that presented with vascular leakage. […] For quantification purposes, ˜20-30 vascular profiles were selected for each mouse, based on tissue size, degree of vascularization and quality of endomucin staining. […]
Paclitaxel Increases Metastatic Dissemination of Breast Tumors—To assess if paclitaxel treatment promotes tumor cell dissemination and metastatic incidence, we first quantified and compared incidence and frequency of bursting in mice treated with vehicle or paclitaxel, using IVI (FIGS. 3A-C). […] The same conclusions were reached when frequency of bursting was normalized to the number of TMEM sites, as measured in each field. […] In addition to IVI, extravascular dextran area was quantified and compared as % normalized to the blood vessel area in fixed tumors of mice treated with either vehicle or paclitaxel, using multichannel IF. […]

breast tumors = assay: Tumor growth in mouse breast carcinoma models; type: in vivo; conditions: 10 mg/Kg paclitaxel every five days, three times; vs non-treated controls
Source text: Herein, the possibility was examined that neoadjuvant paclitaxel promotes TMEM assembly and cancer cell dissemination and metastasis. This hypothesis was investigated in the following breast carcinoma models: (i) transgenic MMTV-PyMT mice bearing spontaneous breast tumors, (ii) FVB mice transplanted orthotopically with tumors from MMTV-PyMT donors, and (iii) two patient-derived xenografts (PDX), HT17 and HT33, developed previously in our laboratory (31). […] Treatment of all groups began at the early carcinoma stage (tumor size of ˜0.3 cm) when there is minimal or absent necrosis. It was decided to work with the early-stage PyMT mouse mammary carcinoma model because it more accurately reflects clinically relevant scenarios where most women present with small tumors of <2 cm (32). At the end of treatment all tumors were histologically classified as invasive carcinomas.
as §1
Animals and Animal Procedures. MMTV-PyMT mice were bred in-house at the Albert Einstein College of Medicine (AECOM). Generation of MMTV-PyMT Mena^−/− has been described previously (28). […]

In the case of CC(=O)O[C@H]1C(=O)[C@@]2(C)[C@H]([C@H](OC(=O)c3ccccc3)[C@]3(O)C[C@H](OC(=O)[C@H](O)[C@@H](NC(=O)c4ccccc4)c4ccccc4)C(C)=C1C3(C)C)[C@]1(OC(C)=O)CO[C@@H]1C[C@@H]2O [paclitaxel], the “number of CTCs in the blood” value (circulating tumor cells; Mena^-/- PyMT-CFP transplants) is reported as “failed to boost”, the “increase in circulating tumor cells (CTCs)” value (circulating tumor cells; all experimental models examined, p<0.05) is reported as “at least 2 fold” and the “number of CTCs (TMEM activity)” value (circulating tumor cells; single agent vs vehicle, PyMT-transplantation and HT17 xenograft) is reported as “significant increases”. The overall survival (breast cancer) was “does not improve”, the “rate of pathologic complete response (pCR)” value (breast cancer) was “significantly increases” and the “vascular profiles with extravascular dextran co-localized with at least 1 TMEM” value (TMEM; fixed tumor sections, Dextran-TMR i.v. for 1 hour) was 96-98%. For the same molecule, the “extravascular dextran area normalized to blood vessel area, fold vs vehicle-treated” value (TMEM; fixed tumors, p<0.05) was 3 fold and the tumor growth (breast tumors) was “delayed tumor growth”.
